How the values were obtained:
Assay type in all cases: in vivo
[1] = tested on: Russian thistle (Salsola iberica); test: Test F combination of compound 2 with bromoxynil, postemergence; settings: 15 days, mean of three replicates, scale 0 to 100
Protocol: Test F evaluated the effect of combining compound 2 with bromoxynil. The test species for this experiment was Russian thistle (Salsola iberica), which was prepared by sowing seeds into a blend of loam soil and sand. Test chemicals were formulated in a non-phytotoxic solvent mixture that included a surfactant and applied postemergence to plants ranging in height from 12 to 20 cm. […] Treatments consisted of Compound 2, bromoxynil, or their combination, using a spray volume of 457 L/ha. Each treatment was replicated three times. Treated plants and untreated controls were maintained in a greenhouse for 15 days, after which time all plants were visually evaluated and compared to the untreated controls. […] Colby's Equation was used to determine the herbicidal effects expected from the mixtures. Colby's Equation (Colby, S.

[2] = tested on: spring wheat (Triticum aestivum); test: Test C plant response; settings: Preemergence, scale 0 to 100
[3] = tested on: canarygrass (Phalaris minor); test: Test C plant response; settings: Preemergence, scale 0 to 100
[4] = tested on: winter barley (Hordeum vulgare); test: Test C plant response; settings: Preemergence, scale 0 to 100
[5] = tested on: buckwheat (wild buckwheat, Polygonum convolvulus); test: Test C plant response; settings: Preemergence, scale 0 to 100
[6] = tested on: green foxtail (Setaria viridis); test: Test C plant response; settings: Preemergence, scale 0 to 100
[7] = tested on: ducksalad (Heteranthera limosa); test: Test E flooded paddy rice and weeds; settings: applied to paddy water, 21 days, scale 0 to 100
From the text: (§1) Three plastic pots (ca. 16-cm diameter) for each application were partially filled with sterilized Tama silt loam soil comprising a 35:50:15 ratio of sand, silt and clay and 2.6% organic matter. Separate plantings for each of the three pots were as follows. Seeds from the U.S. of ducksalad (Heteranthera limosa), sedge (smallflower umbrella sedge, Cyperus difformis), ricefield bulrush (Scirpus mucronatus) and redstem (purple redstem, Ammannia coccinea), were planted into one 16-cm pot for each rate. Seeds from the U.S. of flatsedge (rice flatsedge, Cyperus iria), sprangletop (bearded (i.e. Brdd.) sprangletop, Leptochloa fascicularis), one stand of 9 or 10 water seeded rice seedlings (Oryza sativa cv. ‘Japonica—M202’), and two stands of 3 or 4 transplanted rice seedlings (Oryza sativa cv. ‘Japonica—M202’) were planted into one 16-cm pot for each rate. Seeds from the U.S. of barnyardgrass (Echinochloa crus-galli), late watergrass (Echinochloa oryzicola), early watergrass (Echinochloa oryzoides) and junglerice (Echinochloa colona) were planted into one 16-cm pot for each rate. Plantings were sequential so that crop and weed species were at the 2.0 to 2.5-leaf stage at time of treatment.
(§2) Potted plants were grown in a greenhouse with day/night temperature settings of 30/27° C., and supplemental balanced lighting was provided to maintain a 16-hour photoperiod. Test pots were maintained in the greenhouse until test completion.
(§3) At time of treatment, test pots were flooded to 3 cm above the soil surface, treated by application of test compounds directly to the paddy water, and then maintained at that water depth for the duration of the test. Effects of treatments on rice and weeds were visually evaluated by comparison to untreated controls after 21 days. Plant response ratings, summarized in Table E, are based on a scale of 0 to 100 where 0 is no effect and 100 is complete control. A dash (-) response means no test result.

[8] = tested on: junglerice (Echinochloa colona); test: Test E flooded paddy rice and weeds; settings: applied to paddy water, 21 days, scale 0 to 100
From the text: as §1, §2, §3

[9] = tested on: late watergrass (Echinochloa oryzicola); test: Test E flooded paddy rice and weeds; settings: applied to paddy water, 21 days, scale 0 to 100
From the text: as §1, §2, §3

[10] = tested on: sedge (smallflower umbrella sedge, Cyperus difformis); test: Test E flooded paddy rice and weeds; settings: applied to paddy water, 21 days, scale 0 to 100
From the text: as §1, §2, §3

[11] = tested on: sprangletop (bearded (i.e. Brdd.) sprangletop, Leptochloa fascicularis); test: Test E flooded paddy rice and weeds; settings: applied to paddy water, 21 days, scale 0 to 100
From the text: as §1, §2, §3

[12] = tested on: barnyardgrass (Echinochloa crus-galli); test: Test E flooded paddy rice and weeds; settings: applied to paddy water, 21 days
From the text: as §1, §2, §3

[13] = tested on: water seeded rice seedlings (Oryza sativa cv. ‘Japonica—M202’); test: Test E flooded paddy rice and weeds; settings: applied to paddy water, 21 days, scale 0 to 100
From the text: as §1, §2, §3

[14] = tested on: ricefield bulrush (Scirpus mucronatus); test: Test E flooded paddy rice and weeds; settings: applied to paddy water, 21 days, scale 0 to 100
From the text: as §1, §2, §3

[15] = tested on: transplanted rice seedlings (Oryza sativa cv. ‘Japonica—M202’); test: Test E flooded paddy rice and weeds; settings: applied to paddy water, 21 days, scale 0 to 100
From the text: as §1, §2, §3

[16] = tested on: early watergrass (Echinochloa oryzoides); test: Test E flooded paddy rice and weeds; settings: applied to paddy water, 21 days, scale 0 to 100
From the text: as §1, §2, §3

[17] = tested on: flatsedge (rice flatsedge, Cyperus iria); test: Test E flooded paddy rice and weeds; settings: applied to paddy water, 21 days, scale 0 to 100
From the text: as §1, §2, §3

[18] = tested on: redstem (purple redstem, Ammannia coccinea); test: Test E flooded paddy rice and weeds; settings: applied to paddy water, 21 days, scale 0 to 100
From the text: as §1, §2, §3

## O=C1CCCC(O)=C1C(=O)c1cnc(-c2ccccc2)n(-c2ccccc2)c1=O [Compound 2, 5-[(2-hydroxy-6-oxo-1-cyclohexen-1-yl)carbonyl]-2,3-diphenyl-4(3H)-pyrimidinone]
[1]; Cmpd 2 62 g a.i./ha alone
  Russian Thistle Obsd. (observed effect): 42
[1]; Cmpd 2 125 g a.i./ha alone
  Russian Thistle Obsd. (observed effect): 52
[2]; 62 g ai/ha
  Plant response rating: Wheat, Spring: 0
[2]; 125 g ai/ha
  Plant response rating: Wheat, Spring: 0
[2]; 16 g ai/ha
  Plant response rating: Wheat, Spring: 0
[2]; 31 g ai/ha
  Plant response rating: Wheat, Spring: 0
[3]; 62 g ai/ha
  Plant response rating: Canarygrass: 0
[3]; 125 g ai/ha
  Plant response rating: Canarygrass: 10
[3]; 16 g ai/ha
  Plant response rating: Canarygrass: 0
[3]; 31 g ai/ha
  Plant response rating: Canarygrass: 0
[4]; 62 g ai/ha
  Plant response rating: Barley, Winter: 0
[4]; 125 g ai/ha
  Plant response rating: Barley, Winter: 0
[4]; 16 g ai/ha
  Plant response rating: Barley, Winter: 0
[4]; 31 g ai/ha
  Plant response rating: Barley, Winter: 0
[5]; 62 g ai/ha
  Plant response rating: Buckwheat, Wild: 0
[5]; 125 g ai/ha
  Plant response rating: Buckwheat, Wild: 0
[5]; 16 g ai/ha
  Plant response rating: Buckwheat, Wild: 0
[5]; 31 g ai/ha
  Plant response rating: Buckwheat, Wild: 0
[6]; 62 g ai/ha
  Plant response rating: Foxtail, Green: 0
[6]; 125 g ai/ha
  Plant response rating: Foxtail, Green: 0
[6]; 16 g ai/ha
  Plant response rating: Foxtail, Green: 0
[6]; 31 g ai/ha
  Plant response rating: Foxtail, Green: 0

## COc1cccc(-n2c(-c3ccccc3)ncc(C(=O)C3=C(O)CCCC3=O)c2=O)c1 [Compound 19]
[7]; 64 g ai/ha
  Plant response rating, Ducksalad, Flood: 85
[7]; 125 g ai/ha
  Plant response rating, Ducksalad, Flood: 95
[7]; 250 g ai/ha
  Plant response rating, Ducksalad, Flood: 100
[7]; 500 g ai/ha
  Plant response rating, Ducksalad, Flood: 100
[8]; 64 g ai/ha
  Plant response rating, Junglerice, Flood: 0
[8]; 125 g ai/ha
  Plant response rating, Junglerice, Flood: 50
[8]; 250 g ai/ha
  Plant response rating, Junglerice, Flood: 65
[8]; 500 g ai/ha
  Plant response rating, Junglerice, Flood: 80
[9]; 64 g ai/ha
  Plant response rating, Watergrass, Late, Flood: 0
[9]; 125 g ai/ha
  Plant response rating, Watergrass, Late, Flood: 45
[9]; 250 g ai/ha
  Plant response rating, Watergrass, Late, Flood: 60
[9]; 500 g ai/ha
  Plant response rating, Watergrass, Late, Flood: 55
[10]; 64 g ai/ha
  Plant response rating, Sedge, Umbrella, Flood: 90
[10]; 125 g ai/ha
  Plant response rating, Sedge, Umbrella, Flood: 100
[10]; 250 g ai/ha
  Plant response rating, Sedge, Umbrella, Flood: 100
[10]; 500 g ai/ha
  Plant response rating, Sedge, Umbrella, Flood: 100
[11]; 64 g ai/ha
  Plant response rating, Sprangletop, Brdd., Flood: 75
[11]; 125 g ai/ha
  Plant response rating, Sprangletop, Brdd., Flood: 95
[11]; 250 g ai/ha
  Plant response rating, Sprangletop, Brdd., Flood: 100
[11]; 500 g ai/ha
  Plant response rating, Sprangletop, Brdd., Flood: 100
[12]; 64 g ai/ha, scale 0 to 100
  Plant response rating, Barnyardgrass, Flood: 60
[12]; 125 g ai/ha, scale 0 to 100
  Plant response rating, Barnyardgrass, Flood: 60
[12]; 250 g ai/ha, scale 0 to 100
  Plant response rating, Barnyardgrass, Flood: 70
[12]; 500 g ai/ha, scale 0 to 100 (0 no effect, 100 complete control)
  Plant response rating, Barnyardgrass, Flood: 85
[13]; 64 g ai/ha
  Plant response rating, Rice, Water Seeded, Flood: 0
[13]; 125 g ai/ha
  Plant response rating, Rice, Water Seeded, Flood: 40
[13]; 250 g ai/ha
  Plant response rating, Rice, Water Seeded, Flood: 70
[13]; 500 g ai/ha
  Plant response rating, Rice, Water Seeded, Flood: 95
[14]; 64 g ai/ha
  Plant response rating, Bulrush, Ricefield, Flood: 50
[14]; 125 g ai/ha
  Plant response rating, Bulrush, Ricefield, Flood: 70
[14]; 250 g ai/ha
  Plant response rating, Bulrush, Ricefield, Flood: 70
[14]; 500 g ai/ha
  Plant response rating, Bulrush, Ricefield, Flood: 75
[15]; 64 g ai/ha
  Plant response rating, Rice, Transplanted, Flood: 0
[15]; 125 g ai/ha
  Plant response rating, Rice, Transplanted, Flood: 35
[15]; 250 g ai/ha
  Plant response rating, Rice, Transplanted, Flood: 40
[15]; 500 g ai/ha
  Plant response rating, Rice, Transplanted, Flood: 65
[16]; 64 g ai/ha
  Plant response rating, Watergrass, Early, Flood: 20
[16]; 125 g ai/ha
  Plant response rating, Watergrass, Early, Flood: 45
[16]; 250 g ai/ha
  Plant response rating, Watergrass, Early, Flood: 65
[16]; 500 g ai/ha
  Plant response rating, Watergrass, Early, Flood: 85
[17]; 64 g ai/ha
  Plant response rating, Flatsedge, Rice, Flood: 40
[17]; 125 g ai/ha
  Plant response rating, Flatsedge, Rice, Flood: 40
[17]; 250 g ai/ha
  Plant response rating, Flatsedge, Rice, Flood: 95
[17]; 500 g ai/ha
  Plant response rating, Flatsedge, Rice, Flood: 100
[18]; 64 g ai/ha
  Plant response rating, Redstem, Flood: 0
[18]; 125 g ai/ha
  Plant response rating, Redstem, Flood: 90
[18]; 250 g ai/ha
  Plant response rating, Redstem, Flood: 90
[18]; 500 g ai/ha
  Plant response rating, Redstem, Flood: 85
